Source: patent US20220332699A1 (SAGE THERAPEUTICS, INC., priority 2019, published 2022)

What follows are compounds tested against CYP46A1 (Homo sapiens, UniProt Q9Y6A2) (assay: CYP46A1 Enzyme Assay 2 (testosterone substrate, HPLC-MS)). Conditions: not given.
Sequence of CYP46A1 (Q9Y6A2 whole entry): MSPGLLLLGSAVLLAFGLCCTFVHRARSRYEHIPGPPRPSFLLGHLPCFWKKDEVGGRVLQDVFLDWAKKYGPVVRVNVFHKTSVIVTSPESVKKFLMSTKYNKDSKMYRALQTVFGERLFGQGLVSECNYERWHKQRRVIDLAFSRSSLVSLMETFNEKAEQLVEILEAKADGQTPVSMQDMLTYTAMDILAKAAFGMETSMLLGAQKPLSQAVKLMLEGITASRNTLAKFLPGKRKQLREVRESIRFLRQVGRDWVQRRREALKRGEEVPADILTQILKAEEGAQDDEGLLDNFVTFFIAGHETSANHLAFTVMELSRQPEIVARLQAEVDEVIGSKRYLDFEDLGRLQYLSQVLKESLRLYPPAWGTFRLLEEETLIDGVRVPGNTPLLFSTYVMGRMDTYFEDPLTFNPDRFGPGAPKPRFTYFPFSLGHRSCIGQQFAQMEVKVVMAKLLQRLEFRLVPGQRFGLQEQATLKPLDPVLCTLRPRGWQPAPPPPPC
Format: biochemical
Protocol: Briefly, in a 384-well plate format, 10 μL per well of an enzyme-substrate mixture of CYP46A1 (5 μM final concentration) and Testosterone ([…] final concentration) were dispensed to wells containing test compound. For CYP46A1 titration, 5 μL per well of serially diluted CYP46A1 (concentrations including 10 μM, 5 μM, and 2.5 μM) and Testosterone (concentration of […]) were dispensed. For Testosterone titration, 5 μL per well of serially diluted Testosterone (concentrations including 10 μM, 5 μM, and 2.5 μM) and CYP46A1 (concentration of 5 μM) were dispensed. The plates were centrifuged at 1000 rpm for 30 seconds, and then sealed and incubated at 37° C. for 30 minutes. The plate was removed from the incubator, and then 10 μL per well of NADPH-generating system were dispensed to initiate the reaction. The plates were incubated at 37° C. for 15 minutes, added with 80 μL per well of 100% methanol consisting 1 ng/ml diclofenac as internal standard, and then transferred for HPLC-MS.
In the case of `N#CC1(c2ccccc2)CCN(C(=O)c2cccnc2-c2ccncn2)CC1` [Compound A256, 4-phenyl-1-(2-(pyrimidin-4-yl)nicotinoyl)piperidine-4-carbonitrile], the IC50 is reported as greater than 1000 nM.

Same assay, conditions: read-out: IC50 (CYP46A1 inhibitory activity)
Work on `N#CC1(CC2CC2)CCN(C(=O)c2cccnc2-c2ccncn2)CC1` [Compound A58, 4-(cyclopropylmethyl)-1-(2-(pyrimidin-4-yl)nicotinoyl)piperidine-4-carbonitrile] yielded an IC50 of 100 to 1000 nM.
In the case of `N#CC1(Cc2ccc(F)c(F)c2)CCN(C(=O)c2cccnc2-c2ccncn2)CC1` [Compound A206, 4-(3,4-difluorobenzyl)-1-(2-(pyrimidin-4-yl)nicotinoyl)piperidine-4-carbonitrile], the IC50 is reported as less than 100 nM.
In the case of `N#CC1(Cc2ccc(F)cc2)CCN(C(=O)c2cccnc2-c2cccnc2)CC1` [Compound A18, 1-([2,3′-bipyridine]-3-carbonyl)-4-(4-fluorobenzyl)piperidine-4-carbonitrile], the IC50 is reported as greater than 1000 nM.
In the case of `N#CC1(Cc2cnc(C(F)(F)F)nc2)CCN(C(=O)c2cccnc2-c2ccncn2)CC1` [Compound A239, 1-(2-(pyrimidin-4-yl)nicotinoyl)-4-((2-(trifluoromethyl)pyrimidin-5-yl)methyl)piperidine-4-carbonitrile], the IC50 is reported as greater than 1000 nM.
`N#CC1(Cc2ccc(Cl)cc2)CCN(C(=O)c2cccnc2-c2ccncn2)CC1` [Compound A37, 4-(4-chlorobenzyl)-1-(2-(pyrimidin-4-yl)nicotinoyl)piperidine-4-carbonitrile] was tested, and the IC50 was less than 100 nM.
Work on `C[C@H](c1ccc(F)cc1F)C1(C#N)CCN(C(=O)c2cccnc2-c2ccncc2)CC1` [Compound A237, (S)-1-([2,4′-bipyridine]-3-carbonyl)-4-(1-(2,4-difluorophenyl)ethyl)piperidine-4-carbonitrile] yielded an IC50 of less than 100 nM.
For `N#CC1(Cc2ccc(C3CC3)cn2)CCN(C(=O)c2cccnc2-c2ccncn2)CC1` [Compound A226, 4-((5-cyclopropylpyridin-2-yl)methyl)-1-(2-(pyrimidin-4-yl)nicotinoyl)piperidine-4-carbonitrile], the IC50 was 100 to 1000 nM.
For `C[C@@H](c1ccc(C(F)(F)F)cc1)C1(C#N)CCN(C(=O)c2cccnc2-c2ccncn2)CC1` [Compound A250, (S)-1-(2-(pyrimidin-4-yl)nicotinoyl)-4-(1-(4-(trifluoromethyl)phenyl)ethyl)piperidine-4-carbonitrile], the IC50 was less than 100 nM.
`N#CC1(Cc2ccc(F)cc2)CCN(C(=O)c2cccnc2-c2ncncc2F)CC1` [Compound A233, 4-(4-fluorobenzyl)-1-(2-(5-fluoropyrimidin-4-yl)nicotinoyl)piperidine-4-carbonitrile] gave an IC50 greater than 1000 nM.
`N#C[C@@]1(Cc2ccc(F)cc2)C[C@H]2CC[C@@H](C1)N2C(=O)c1cccnc1-c1ccncn1` [Compound A252, (1R,3r,5S)-3-(4-fluorobenzyl)-8-(2-(pyrimidin-4-yl)nicotinoyl)-8-azabicyclo[3.2.1]octane-3-carbonitrile] was tested, and the IC50 was 100 to 1000 nM.
Work on `N#CC1(CCCc2ccccc2)CCN(C(=O)c2cccnc2-c2ccncc2)CC1` [Compound A71, 1-{[2,4′-bipyridine]-3-carbonyl}-4-(3-phenylpropyl)piperidine-4-carbonitrile] yielded an IC50 of less than 100 nM.
`C[C@H](c1ccc(F)cc1F)C1(C#N)CCN(C(=O)c2cccnc2-c2ccncn2)CC1` [Compound A241, (S)-4-(1-(2,4-difluorophenyl)ethyl)-1-(2-(pyrimidin-4-yl)nicotinoyl)piperidine-4-carbonitrile] gave an IC50 of less than 100 nM.
For `N#CC1(Cc2ccc(Cl)cc2F)CCN(C(=O)c2cccnc2-c2ccncc2)CC1` [Compound A11, 1-{[2,4′-bipyridine]-3-carbonyl}-4-[(4-chloro-2-fluorophenyl)methyl]piperidine-4-carbonitrile], the IC50 was less than 100 nM.
Compound `N#CC1(Cc2cccc(Cl)c2)CCN(C(=O)c2cccnc2-c2ccncc2)CC1` [Compound A22] has an IC50 of less than 100 nM.
In the case of `CCc1ccc(CC2(C#N)CCN(C(=O)c3cccnc3-c3ccncn3)CC2)cc1` [Compound A208, 4-(4-ethylbenzyl)-1-(2-(pyrimidin-4-yl)nicotinoyl)piperidine-4-carbonitrile], the IC50 is reported as less than 100 nM.
Compound `N#CC1(Cc2cc(F)ccc2F)CCN(C(=O)c2cccnc2-c2ccncn2)CC1` [Compound A261, 4-(2,5-difluorobenzyl)-1-(2-(pyrimidin-4-yl)nicotinoyl)piperidine-4-carbonitrile] has an IC50 of less than 100 nM.
Compound `N#CC1(Cc2cccc3ccccc23)CCN(C(=O)c2cccnc2-c2ccncn2)CC1` [Compound A225, 4-(naphthalen-1-ylmethyl)-1-(2-(pyrimidin-4-yl)nicotinoyl)piperidine-4-carbonitrile] has an IC50 of less than 100 nM.
Compound `N#CC1(Cc2ccc(C3CC3)nc2)CCN(C(=O)c2cccnc2-c2ccncn2)CC1` [Compound A211, 4-((6-cyclopropylpyridin-3-yl)methyl)-1-(2-(pyrimidin-4-yl)nicotinoyl)piperidine-4-carbonitrile] has an IC50 of less than 100 nM.
`N#CC1(Cc2cc(C(F)(F)F)ccc2F)CCN(C(=O)c2cccnc2-c2ccncn2)CC1` [Compound A273, 4-(2-fluoro-5-(trifluoromethyl)benzyl)-1-(2-(pyrimidin-4-yl)nicotinoyl)piperidine-4-carbonitrile] gave an IC50 of less than 100 nM.
`C[C@H]1CN(C(=O)c2cccnc2-c2ccncn2)CC[C@]1(C#N)Cc1ccc(F)cc1` [Compound A248, (3R,4R)-4-(4-fluorobenzyl)-3-methyl-1-(2-(pyrimidin-4-yl)nicotinoyl)piperidine-4-carbonitrile] gave an IC50 of less than 100 nM.
Compound `N#CC1(Cc2cccc(F)c2F)CCN(C(=O)c2cccnc2-c2ccncn2)CC1` [Compound A209, 4-(2,3-difluorobenzyl)-1-(2-(pyrimidin-4-yl)nicotinoyl)piperidine-4-carbonitrile] has an IC50 of less than 100 nM.
Compound `N#CC1(Cc2ccc(F)cc2)CCN(C(=O)c2cccnc2-c2cnco2)CC1` [Compound A56, 4-(4-fluorobenzyl)-1-(2-(oxazol-5-yl)nicotinoyl)piperidine-4-carbonitrile] has an IC50 of 100 to 1000 nM.
For `N#CC1(Cc2cccc(C3CC3)c2)CCN(C(=O)c2cccnc2-c2ccncn2)CC1` [Compound A218, 4-(3-cyclopropylbenzyl)-1-(2-(pyrimidin-4-yl)nicotinoyl)piperidine-4-carbonitrile], the IC50 was less than 100 nM.
For `N#CC1(Cc2ccc3ccccc3c2)CCN(C(=O)c2cccnc2-c2ccncn2)CC1` [Compound A224, 4-(naphthalen-2-ylmethyl)-1-(2-(pyrimidin-4-yl)nicotinoyl)piperidine-4-carbonitrile], the IC50 was less than 100 nM.
In the case of `N#CC1(Cc2cccc(F)c2)CCN(C(=O)c2cccnc2-c2ccncc2)CC1` [Compound A13, 1-{[2,4′-bipyridine]-3-carbonyl}-4-[(3-fluorophenyl)methyl]piperidine-4-carbonitrile], the IC50 is reported as less than 100 nM.
`N#CC1(Cc2cc(F)cc(F)c2)CCN(C(=O)c2cccnc2-c2ccncc2)CC1` [Compound A70, 1-([2,4′-bipyridine]-3-carbonyl)-4-(3,5-difluorobenzyl)piperidine-4-carbonitrile] showed an IC50 of less than 100 nM.
With `N#CC1(CCCCc2ccccc2)CCN(C(=O)c2cccnc2-c2ccncc2)CC1` [Compound A67, 1-([2,4′ bipyridine]-3-carbonyl)-4-(4-phenylbutyl)piperidine-4-carbonitrile] the IC50 was less than 100 nM.
`COc1ccc(CC2(C#N)CCN(C(=O)c3cccnc3-c3ccncn3)CC2)cn1` [Compound A202, 4-((6-methoxypyridin-3-yl)methyl)-1-(2-(pyrimidin-4-yl)nicotinoyl)piperidine-4-carbonitrile] gave an IC50 of less than 100 nM.
